# System: Staphylococcus aureus
# Assay: Antibacterial activity against Staphylococcus aureus ATCC 29213 by CLSI method
# Assay type: functional
row,SMILES,MIC [µg/mL]
1,Oc1cc(C/C=C\Cc2c(Br)c(O)cc(O)c2Br)c(O)cc1Cl,40
2,Oc1cc(C/C=C(/Cl)Cc2c(Br)c(O)cc(O)c2Br)c(O)cc1Cl,10
3,Oc1cc(C/C=C\Cc2c(Br)c(O)cc(O)c2Br)c(O)cc1Br,40
4,Oc1cc(O)cc(C/C(Cl)=C\Cc2cc(O)c(-c3c(O)cc(C/C(Cl)=C\Cc4cc(O)c(Cl)cc4O)cc3O)cc2O)c1,10
